Entries after “also recorded” stand apart in the source; their conditions may differ.
What was measured:
[1] = biological target: T1, 5HT2B receptors (Homo sapiens, UniProt P41595); assay: Human 5-HT2B functional high throughput screening assay in CHO-K1 cells (calcium flux); format: cell-based
T1 construct: expressed in transfected cells; host or cells: CHO-K1 cells
Method in brief: (§1)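 Frozen CHO-K1 cells overexpressing the receptor were plated, serum-starved overnight, then loaded with Ca4 dye plus 2.5 mM probenecid for 60 min at room temperature. FLIPR fluorescence (ex 480/em 530 nm, 25 °C) after compound addition was normalized to serotonin; EC50 and Emax came from 4-parameter logistic fits.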

[2] = tested on: PCP-induced hyperlocomotion; assay: Psychostimulant (PCP)-induced hyperlocomotion in rat; format: in vivo; settings: male CD rats; i.p. 1, 3, 10 mg/kg 30 min before PCP 2 mg/kg sc; significant at 1 mg/kg and 10 mg/kg
Protocol: (vii) Assessment of Effects on Psychostimulant-Induced Hyperlocomotion in Rat
(§2) In humans, phencyclidine (PCP) is known to produce a syndrome of behavioral effects which have many characteristics in common with schizophrenia. Therefore, antagonism of PCP effects might be evidence for antipsychotic efficacy of a compound.
Male CD rats with a body weight of 316-394 g from Charles River (Portage, Mich.) were used in this study. The rats were habituated to the test room for 60 minutes. The rats were then placed into the locomotor activity chambers (AccuScan Instruments) for 30 minutes and then were dosed i.p. with Example 115 at 0, 1, 3 and 10 mg/kg. The rats were dosed sc 30 minutes later with PCP at 0 or 2 mg/kg. The activity was measured for 150 minutes in total and 90 minutes post PCP.

[3] = tested on: AMP- or PCP-induced hyperactivity; assay: Psychostimulant (AMP or PCP)-induced hyperlocomotion in mice; format: in vivo, mouse
Source text: (x) Assessment of Effects on Psychostimulant-Induced Hyperlocomotion in Mice
In both humans and experimental animals amphetamine (AMP) profoundly affects motor activity, sensorimotor function, sleep, attention, aggressive and sexual behaviors, learning and memory, operant behaviors, appetite and food intake. In addition, amphetamine induces psychotic reactions in normal individuals and exacerbates symptoms of schizophrenia in patients. In experimental animals several distinct behaviors are considered to be correlates of amphetamine psychosis. For example, amphetamine-induced hyperactivity in rodents is believed to model the psychotic symptoms of schizophrenia. Reversal of these behaviors is used to predict potential antipsychotic activity of drugs in pre-clinical studies.
as §2
Male NMRI mice (5-week old, Janvier, France) or C57BL/6J mice (6-week old, Janvier, France) were group housed and allowed ad-libitum access to food and water. A 12 hour light/dark cycle was imposed with lights-on period between 0530 and 1730 hours. All testing occurred between 700 and 1300 hours. All procedures were approved by Abbott Institutional Animal Care and Use Committee (USA) or Animal Welfare Officer (Germany) and were conducted in accordance with the National Institutes of Health Guide for Care and Use of Laboratory Animals guidelines and applicable national laws in the facilities accredited by the Association for the Assessment and Accreditation of Laboratory Animal Care.
On the day of experiment, animals were brought from the animal facility into the experimental room and were allowed to acclimatize for at least 30 minutes. Animals were then placed in the test cages for a habituation period of 60 minutes. The animals were then injected ip with the test compound and returned to the test cage. 30 Minutes later the mice were injected with d-amphetamine (2.0 mg/kg, AMP, Sigma, #A5880, sc) or phencyclidine (2.0 mg/kg, PCP, Sigma, #P3029, sc) Sigma, and returned to the test cages for 90 minutes. Each treatment group consisted of 8-10 animals. The data was acquired by Cage rack Photobeam system (SDI, San Diego Instruments, CA). The analyzed data were: fine movements, ambulations and total movements (fine+ambulations). Data was subjected to one- or two-way distribution-free ANOVA followed by Dunnett's and Tukey's post hoc tests.

[4] = biological target: T2, 5HT2C receptors (Homo sapiens, UniProt P28335); assay: Human 5-HT2C functional high throughput screening assay in CHO-K1 cells (calcium flux); format: cell-based; parameters: expressed in transfected cells; host or cells: CHO-K1 cells
T2 sequence (P28335 33-458): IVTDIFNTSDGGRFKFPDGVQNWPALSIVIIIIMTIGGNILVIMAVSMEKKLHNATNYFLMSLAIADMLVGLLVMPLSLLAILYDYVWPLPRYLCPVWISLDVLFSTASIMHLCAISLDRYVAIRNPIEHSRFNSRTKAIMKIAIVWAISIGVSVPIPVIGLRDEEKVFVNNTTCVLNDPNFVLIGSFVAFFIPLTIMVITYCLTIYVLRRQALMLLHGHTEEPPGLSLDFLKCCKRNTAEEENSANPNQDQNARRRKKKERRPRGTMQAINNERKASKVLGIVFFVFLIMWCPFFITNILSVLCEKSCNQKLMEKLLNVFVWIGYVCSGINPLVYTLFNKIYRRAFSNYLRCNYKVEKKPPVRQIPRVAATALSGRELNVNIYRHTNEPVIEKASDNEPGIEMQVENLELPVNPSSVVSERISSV
Method in brief: as §1

T1 sequence (P41595 whole entry): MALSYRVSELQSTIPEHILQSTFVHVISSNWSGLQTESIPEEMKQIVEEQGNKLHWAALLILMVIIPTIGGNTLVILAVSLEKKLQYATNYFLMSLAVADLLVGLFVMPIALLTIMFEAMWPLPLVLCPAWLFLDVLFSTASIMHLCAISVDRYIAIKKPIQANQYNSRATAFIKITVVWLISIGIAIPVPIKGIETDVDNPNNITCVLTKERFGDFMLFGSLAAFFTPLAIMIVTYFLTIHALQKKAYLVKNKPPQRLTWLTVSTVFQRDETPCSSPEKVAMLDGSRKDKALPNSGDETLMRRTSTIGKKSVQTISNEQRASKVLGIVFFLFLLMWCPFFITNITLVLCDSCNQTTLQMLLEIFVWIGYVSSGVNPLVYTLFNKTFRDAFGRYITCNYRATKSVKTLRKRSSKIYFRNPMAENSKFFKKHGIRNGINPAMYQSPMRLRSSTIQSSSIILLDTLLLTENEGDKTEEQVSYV

In the case of `CN1C[C@@H]2CNC(=O)c3cc(-c4ccc(F)cc4)ccc3[C@H]2C1` [Example 115, (3aS,10bS)-8-(4-Fluorophenyl)-2-methyl-1,2,3,3a,4,5-hexahydrobenzo[e]pyrrolo[3,4-c]azepin-6(10bH)-one], the EC50 ([1]; 5-HT2B agonist activity, CHO-K1 cells, calcium flux, read-out: EC50) is reported as over 10000 nM, the Emax ([1]; 5-HT2B, maximum functional response as percentage relative to the effect of serotonin) is reported as “inactive” and the “PCP-induced hyperlocomotion (distance traveled)” value [2] is reported as “significantly attenuate the PCP-induced hyperlocomotion; also recorded: attenuating the affect of phencyclidine (PCP)”. The spontaneous activity ([3]; after ip test compound, before psychostimulant) was “without affecting spontaneous activity”, the AMP-induced hyperactivity ([3]; test compound ip 30 min before d-amphetamine 2.0 mg/kg sc) was “attenuated AMP-induced hyperactivity in mice significantly and in a dose dependent manner; also recorded: attenuating the affect of d-amphetamine (AMP)” and the EC50 ([4]; 5-HT2C agonist activity, CHO-K1 cells, calcium flux, read-out: EC50) was 2 nM. The Emax ([4]; CHO-K1, 5-HT2C, maximum functional response as percentage relative to the effect of serotonin, read-out: Emax) was over 120%.

Source: patent publication US8846951B2 (AbbVie Inc., priority 2009, dated 2014)
